Measurements reported in patent publication US20200121651A1, “Pramipexole for Use in the Treatment of Pain” (STC.UNM, priority 2018, published 2020).
Like-named read-outs stand apart in the source and are kept apart here.

Tests used:
[1] = tested on: TLR4-mediated IL-1β release in THP-1 cells; details: for IL-1β release in the presence of LPS stimulation / basal cellular levels of IL-1β: THP-1 cells; for basal cellular levels of IL-1β: pramipexole alone, no LPS
Description: The assay was performed according to the manufacturer's instructions.

allodynia in CCI mice = details: for effect on allodynia (hindpaw absolute threshold): male CCI mice, i.v. injection day 10 post surgery, identical ipsilateral and contralateral
Description: The current report analyzed adult (10-16 week old) male C57BL/6 mice (wildtype; FFID: IMSR_JAX:000664) purchased from Jackson Laboratories (Bar Harbor, Me., USA). Mice were maintained on a standard 12:12 light/dark cycle (lights on from 0600 hours to 1800 hours) in a temperature controlled environment (23°±2° C.) for the duration of the study. Additionally, mice were housed in groups of 4-5 mice/cage, of which all mice were routinely monitored by the animal care staff under the direction of the institutional veterinarian, fed standard rodent chow and water ad libitum, with cages and bedding changed every 7 days. All procedures were approved by the Institutional Animal Care and Use Committee (IACUC) of the University of New Mexico Health Sciences Center, conducted in accordance to the NIH Guidelines for the Care and Use of Laboratory Animals, and closely adhered to guidelines from the International Association for the Study of Pain for the use of animals in research (Foundation for Biomedical Research, The Biomedical Investigator's Handbook for Researchers Using Animal Models. Washington, D.C.: FBR, 1987. WWW: http://www.fbresearch.org/).
This study utilized a modified version of a well-established rat peripheral nerve injury model in which pathological sensitivity to light touch, clinically termed allodynia, is induced through a chronic constriction injury (CCI) (Bennett and Xie 1988). […] Under isoflurane anesthesia (1.5-2.0% volume in oxygen, 2.0 l/min), the dorsal left thigh was shaved and cleaned using 70% Ethanol (EtOH) that was air dried prior to surgery. Utilizing a small incision over the posterior thigh, remaining […] below the femur bone, from hip bone to the patella, the muscle fascia of the mouse was exposed. Using aseptic procedures, a blunt dissection was performed to carefully isolate the sciatic nerve by separating the overlying muscular fascia. Sterile plastic probes were then used to locate and lift the sciatic nerve from its pocket within the muscle tissue. Mice were then subjected to unilateral loose ligation of the sciatic nerve with three 5-0 chromic gut sutures (Ethicon; Somerville, N.J., Cat #634G) which were snugly tied around the sciatic nerve (avoiding pinching) proximal to the trifurcation with 1.5 mm spacing between sutures. Throughout the duration of the surgery, sterile 0.9% isotonic saline (Hospira; Cat #NDC 0409-4888-03) was irrigated over the sciatic nerve to prevent dehydration. Sham surgery followed the same CCI surgical procedure identically but without ligation. Upon ligation, the sciatic nerve was gently placed back into its correct anatomical position using the sterile plastic probes, and the overlying muscle fascia was stitched closed using one 4-0 sterile silk sutures (Ethicon; Somerville, N.J., Cat #83G). Wound clips (Kent Scientific Corp.; Cat #INS750344) were then utilized to seal the incision closed at which point the surgical procedure was complete. […] Body weight was monitored prior to and after surgery.
Upon a 7-14 day acclimation to the testing environment, mice were subjected to a habituation period. The habituation period included placing the mice atop a testing rack within the first 4 hours of the light cycle (lights on from 0600 hours to 1800 hours) in a sound and temperature (23°±2° C.) controlled environment, allowing full access to the plantar hindpaw. Mice were exposed to four separate habitation periods for approximately 45 min/day.

[2] = CCI mice, i.v. day 10 post surgery

CCCN[C@H]1CCc2nc(N)sc2C1 [Pramipexole, (6S)-6-N-propyl-4,5,6,7-tetrahydro-1,3-benzothiazole-2,6-diamine]
IL-1β release in the presence of LPS stimulation ([1]; 5 pg pramipexole plus LPS): significantly blunts | IL-1β release in the presence of LPS stimulation ([1]; 500 pg pramipexole plus LPS): significantly blunts | basal cellular levels of IL-1β ([1]; 5 pg): does not significantly alter | basal cellular levels of IL-1β ([1]; 500 pg): does not significantly alter | TLR4-IL-1b activation pathway ([1]; cell-based assay using human THP-1 cells): inhibits the TLR4-IL-1b activation pathway | efficacy on hindpaw withdraw thresholds, hours 24-72 post-injection (allodynia in CCI mice; CCI mice, i.v. 0.5 μg): complete dissipation in the efficacy | time post-injection by which mice returned to allodynia (allodynia in CCI mice; CCI mice, i.v. 0.5 μg): ≤ 24 h | time to complete reversal from allodynia (allodynia in CCI mice; CCI mice, i.v. 0.5 μg, day 10 post-surgery): ≤ 2 h | efficacy on hindpaw withdraw thresholds, hours 24-72 post-injection (allodynia in CCI mice; CCI mice, i.v. 5 μg): complete dissipation in the efficacy | time post-injection by which mice returned to allodynia (allodynia in CCI mice; CCI mice, i.v. 5 μg): ≤ 24 h | time to complete reversal from allodynia (allodynia in CCI mice; CCI mice, i.v. 5 μg, day 10 post-surgery): ≤ 2 h | duration of efficacy (allodynia in CCI mice; [2]): up to 2 hours | time of maximal efficacy post-injection (allodynia in CCI mice; [2]): 2 h | time to complete reversal from allodynia (allodynia in CCI mice; CCI mice, i.v. day 10 post surgery, dose not given in FIG. 1 legend): ≤ 1 h | effect on allodynia (hindpaw absolute threshold) (allodynia in CCI mice): completely reversed from allodynia | effect on allodynia (hindpaw absolute threshold) (allodynia in CCI mice; listed as pramipexole): completely abolishes allodynia
